Results published in paper PMC7170481, “Inhibition of Ammonia Monooxygenase from Ammonia-Oxidizing Archaea by Linear and Aromatic Alkynes” (Applied and Environmental Microbiology, 2020).

Assays:
Assay in all cases: inhibition of NH3-dependent nitrite production by intact cells
Format in all cases: cell-based
[1] = target: T1, AMO from Nitrosomonas europaea (Nitrosomonas europaea, UniProt Q04507+Q04508+Q82T63)
T1 construct: gene amoA1; native membrane enzyme complex in intact cells (not purified); genome carries duplicate amo operons
T1 sequence (Q04507 2-276): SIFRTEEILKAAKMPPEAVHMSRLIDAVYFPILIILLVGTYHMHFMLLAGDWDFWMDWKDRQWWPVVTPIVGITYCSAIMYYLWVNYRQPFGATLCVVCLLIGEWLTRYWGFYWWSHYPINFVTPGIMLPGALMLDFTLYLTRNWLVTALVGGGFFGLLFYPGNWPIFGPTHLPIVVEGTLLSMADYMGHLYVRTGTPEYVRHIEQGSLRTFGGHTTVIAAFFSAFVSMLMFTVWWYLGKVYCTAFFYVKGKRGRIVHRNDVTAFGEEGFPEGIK
T1 sequence (Q04508 26-420): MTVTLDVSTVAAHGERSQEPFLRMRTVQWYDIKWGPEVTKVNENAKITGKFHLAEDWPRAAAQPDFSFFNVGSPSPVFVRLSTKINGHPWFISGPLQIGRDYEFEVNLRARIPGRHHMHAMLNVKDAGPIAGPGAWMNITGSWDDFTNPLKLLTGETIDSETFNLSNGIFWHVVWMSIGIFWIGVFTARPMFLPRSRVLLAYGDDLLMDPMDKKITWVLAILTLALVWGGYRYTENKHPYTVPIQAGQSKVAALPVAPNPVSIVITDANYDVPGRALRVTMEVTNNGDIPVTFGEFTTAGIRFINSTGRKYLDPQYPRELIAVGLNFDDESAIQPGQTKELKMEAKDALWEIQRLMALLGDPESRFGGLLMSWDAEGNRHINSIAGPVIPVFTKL
T1 sequence (Q82T63 1-271): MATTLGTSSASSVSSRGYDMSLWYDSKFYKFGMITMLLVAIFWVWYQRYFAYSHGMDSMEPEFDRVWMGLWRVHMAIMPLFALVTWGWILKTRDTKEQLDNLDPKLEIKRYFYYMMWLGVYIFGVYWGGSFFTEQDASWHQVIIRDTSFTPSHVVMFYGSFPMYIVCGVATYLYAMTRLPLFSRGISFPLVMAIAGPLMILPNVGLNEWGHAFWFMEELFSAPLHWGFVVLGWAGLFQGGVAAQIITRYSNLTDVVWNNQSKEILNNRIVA

[2] = target: T2, AMO from "Ca. Nitrosotalea sinensis" Nd2 (Nitrosotalea sinensis, UniProt A0A2H1EFS5+A0A2H1EG39+A0A2H1EG64)
T2 construct: gene amoA; native membrane enzyme complex in intact cells (not purified)
From the text: inhibition of NH3-dependent nitrite production by intact cells on AMO from "Ca.

[3] = target: T3, AMO from "Ca. Nitrosocosmicus franklandus" C13 (Candidatus Nitrosocosmicus franklandianus, UniProt A0A484I8C2+A0A484I9U7+A0A484IBG0)
T3 construct: gene amoA; native membrane enzyme complex in intact cells (not purified); copper-dependent multimeric
T3 sequence (A0A484I9U7 1-216): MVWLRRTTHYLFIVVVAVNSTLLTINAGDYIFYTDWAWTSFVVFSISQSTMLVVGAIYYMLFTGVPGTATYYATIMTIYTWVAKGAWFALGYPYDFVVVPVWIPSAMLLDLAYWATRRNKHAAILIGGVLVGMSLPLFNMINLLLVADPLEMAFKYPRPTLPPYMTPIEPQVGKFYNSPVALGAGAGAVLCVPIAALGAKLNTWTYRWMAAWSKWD
T3 sequence (A0A484I8C2 1-192): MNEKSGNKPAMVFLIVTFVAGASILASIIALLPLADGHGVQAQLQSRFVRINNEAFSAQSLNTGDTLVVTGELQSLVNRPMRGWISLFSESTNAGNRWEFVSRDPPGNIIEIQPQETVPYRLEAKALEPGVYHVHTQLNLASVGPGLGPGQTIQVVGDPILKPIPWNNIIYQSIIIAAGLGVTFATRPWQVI
T3 sequence (A0A484IBG0 1-187): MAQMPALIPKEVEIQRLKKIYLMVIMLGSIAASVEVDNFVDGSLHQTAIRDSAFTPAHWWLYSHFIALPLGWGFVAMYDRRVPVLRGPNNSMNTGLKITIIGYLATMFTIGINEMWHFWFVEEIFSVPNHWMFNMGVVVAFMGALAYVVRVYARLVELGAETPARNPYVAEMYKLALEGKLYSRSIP
From the text: inhibition of NH3-dependent nitrite production by intact cells on AMO from "Ca. Nitrosocosmicus franklandus" C13 | partial inhibition of NH3 oxidation by “Ca.

[4] = tested on: T4, pMMO from Methylococcus capsulatus (Bath); settings: 20 mM NH4+, 20 mM formate as reductant, 10 mM PIPES pH 7, 37°C, 30 min preincubation
T4 construct: gene pmoB; sMMO excluded by naphthalene assay

[5] = target: T1, AMO from Nitrosomonas europaea; settings: 1 mM NH4+, 50 mM sodium phosphate pH 7.7, 2 mM MgCl2, 30°C, 30 min preincubation

T2 sequence (A0A2H1EG64 24-239 limits assumed): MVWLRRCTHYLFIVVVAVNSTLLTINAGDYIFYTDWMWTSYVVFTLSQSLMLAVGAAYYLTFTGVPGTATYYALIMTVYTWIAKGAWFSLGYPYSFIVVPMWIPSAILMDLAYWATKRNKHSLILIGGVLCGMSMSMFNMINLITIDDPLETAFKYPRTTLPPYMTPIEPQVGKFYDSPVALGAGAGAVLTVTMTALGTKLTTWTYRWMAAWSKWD
T2 sequence (A0A2H1EFS5 1-188): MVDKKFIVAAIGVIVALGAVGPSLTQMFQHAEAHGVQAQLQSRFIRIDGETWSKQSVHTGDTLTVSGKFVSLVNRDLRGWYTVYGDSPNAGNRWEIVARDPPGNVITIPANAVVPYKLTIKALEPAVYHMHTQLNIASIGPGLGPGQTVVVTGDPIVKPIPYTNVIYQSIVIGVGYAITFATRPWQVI
T2 sequence (A0A2H1EG39 1-187): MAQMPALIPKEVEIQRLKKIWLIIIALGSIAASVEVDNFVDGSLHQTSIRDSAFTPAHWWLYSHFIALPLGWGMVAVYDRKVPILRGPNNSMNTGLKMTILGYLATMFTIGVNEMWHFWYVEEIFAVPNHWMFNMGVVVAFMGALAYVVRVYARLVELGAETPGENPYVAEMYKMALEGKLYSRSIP

Row | Compound | % inhibition at 10 μM [4] | % inhibition at 10 μM [5] | also measured
1 | C#CCCC [C5, 1-pentyne] | > 20% |  | inhibition at 10 µM [1]: 98 ± 1%; inhibition at 10 µM [2]: 70 ± 1%; inhibition at 10 µM [3]: 14 ± 1%
2 | C#CCCCC [C6, 1-hexyne] | ~ 10% | AMO activity was completely inhibited by C6 to C8 1-alkynes | 
3 | C#CCCCCC [C7, 1-heptyne] | ~ 10% | AMO activity was completely inhibited by C6 to C8 1-alkynes | 
4 | C#CCCCCCC [C8, 1-octyne] |  | AMO activity was completely inhibited by C6 to C8 1-alkynes | 
5 | C#Cc1ccccc1 [PA, phenylacetylene] |  |  | inhibition at 0.5 µM ([1]; read-out: % inhibition at 0.5 μM): 52.5 ± 1.7%; inhibition at 5 µM ([3]; read-out: % inhibition at 5 μM): 55.4 ± 1.4%
